The source made the active and inactive calls. The calls are words filed in the database; no cut-off is given here.
What was measured:
[1] = target: T1, Alpha-1B adrenergic receptor (Rattus norvegicus) (UniProt P15823); assay: Antagonist activity at alpha-1b adrenergic receptor in Wistar rat spleen assessed as inhibition of (-)-phenylephrine-induced contraction; format: tissue-based
T1 sequence (whole entry): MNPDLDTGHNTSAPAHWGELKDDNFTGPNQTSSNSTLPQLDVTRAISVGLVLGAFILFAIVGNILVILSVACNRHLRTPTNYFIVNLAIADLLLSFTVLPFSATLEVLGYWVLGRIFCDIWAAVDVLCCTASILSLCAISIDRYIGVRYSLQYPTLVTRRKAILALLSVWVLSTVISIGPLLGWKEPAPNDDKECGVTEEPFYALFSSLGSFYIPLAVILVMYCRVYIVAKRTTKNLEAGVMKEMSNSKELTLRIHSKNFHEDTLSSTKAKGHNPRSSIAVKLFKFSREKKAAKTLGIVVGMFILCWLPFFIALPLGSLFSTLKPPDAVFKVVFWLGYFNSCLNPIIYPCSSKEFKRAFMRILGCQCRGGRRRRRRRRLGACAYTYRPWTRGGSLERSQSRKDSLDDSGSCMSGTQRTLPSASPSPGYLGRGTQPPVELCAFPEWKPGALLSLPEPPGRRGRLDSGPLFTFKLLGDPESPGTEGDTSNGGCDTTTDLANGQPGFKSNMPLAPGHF

Rattus norvegicus [2] = organism: Rattus norvegicus; assay: Selectivity for antagonist activity at Wistar rat thoracic aorta alpha 1D adrenoceptor over antagonist activity at Wistar rat prostate vas deferens alpha 1A adrenoceptor
Rattus norvegicus [3] = organism: Rattus norvegicus; assay: Selectivity for antagonist activity at Wistar rat thoracic aorta alpha 1D adrenoceptor over antagonist activity at Wistar rat spleen alpha 1B adrenoceptor
[4] = target: T2, Alpha-1D adrenergic receptor (Rattus norvegicus) (UniProt P23944); assay: Antagonist activity at alpha-1d adrenergic receptor in Wistar rat thoracic aorta assessed as inhibition of (-)-noradrenaline-induced contractions
T2 sequence (whole entry): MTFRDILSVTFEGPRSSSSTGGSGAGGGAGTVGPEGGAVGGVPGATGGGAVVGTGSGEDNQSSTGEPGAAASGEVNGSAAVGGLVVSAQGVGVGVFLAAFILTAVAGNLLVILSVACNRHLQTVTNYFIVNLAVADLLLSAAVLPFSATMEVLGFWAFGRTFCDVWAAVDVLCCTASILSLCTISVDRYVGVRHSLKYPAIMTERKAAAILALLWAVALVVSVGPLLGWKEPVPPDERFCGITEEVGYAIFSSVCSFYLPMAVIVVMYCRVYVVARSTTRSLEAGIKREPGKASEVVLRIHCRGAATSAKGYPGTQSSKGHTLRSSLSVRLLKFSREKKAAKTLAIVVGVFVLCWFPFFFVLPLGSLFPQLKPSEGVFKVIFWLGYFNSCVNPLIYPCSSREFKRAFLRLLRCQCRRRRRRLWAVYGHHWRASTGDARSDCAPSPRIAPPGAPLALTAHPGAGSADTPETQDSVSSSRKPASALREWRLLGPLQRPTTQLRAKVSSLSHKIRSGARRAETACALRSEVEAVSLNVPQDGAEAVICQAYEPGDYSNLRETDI

[5] = target: T3, 5-hydroxytryptamine receptor 1A (Homo sapiens) (UniProt P08908); conditions: HeLa
T3 sequence (whole entry): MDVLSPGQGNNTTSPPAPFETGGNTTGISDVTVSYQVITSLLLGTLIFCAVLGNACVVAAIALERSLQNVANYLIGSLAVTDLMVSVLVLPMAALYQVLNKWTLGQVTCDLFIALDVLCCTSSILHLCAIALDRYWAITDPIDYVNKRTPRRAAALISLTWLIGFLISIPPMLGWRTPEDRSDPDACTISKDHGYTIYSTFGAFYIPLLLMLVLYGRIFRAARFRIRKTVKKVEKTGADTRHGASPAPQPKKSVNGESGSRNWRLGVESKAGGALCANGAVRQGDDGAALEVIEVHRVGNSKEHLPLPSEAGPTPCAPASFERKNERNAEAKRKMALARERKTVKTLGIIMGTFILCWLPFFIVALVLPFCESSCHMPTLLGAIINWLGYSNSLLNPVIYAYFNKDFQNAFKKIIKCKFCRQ
Description: Agonist activity at human recombinant 5HT1A receptor expressed in human HeLa cells assessed as increase in [35S]GTPgammaS binding incubated for 20 mins by liquid scintillation counter

[6] = target: T4, Alpha-1A adrenergic receptor (Rattus norvegicus) (UniProt P43140); assay: Antagonist activity at alpha-1a adrenergic receptor in Wistar rat prostatic vas deferens assessed as inhibition of (-)-noradrenaline-induced contraction
T4 sequence (whole entry): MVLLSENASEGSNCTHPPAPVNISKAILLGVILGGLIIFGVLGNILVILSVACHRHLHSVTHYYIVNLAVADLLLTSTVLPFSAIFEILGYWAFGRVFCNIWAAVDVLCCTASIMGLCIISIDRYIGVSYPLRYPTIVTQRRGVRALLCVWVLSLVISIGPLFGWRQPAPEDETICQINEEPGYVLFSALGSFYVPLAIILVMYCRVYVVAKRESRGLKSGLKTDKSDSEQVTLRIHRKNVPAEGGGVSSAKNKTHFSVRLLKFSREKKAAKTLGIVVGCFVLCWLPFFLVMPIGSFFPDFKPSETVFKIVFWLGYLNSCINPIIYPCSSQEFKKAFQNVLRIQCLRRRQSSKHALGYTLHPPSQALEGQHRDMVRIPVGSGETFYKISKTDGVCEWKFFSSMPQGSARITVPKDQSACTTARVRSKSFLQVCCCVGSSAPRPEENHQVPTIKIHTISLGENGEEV

[7] = target: T5, Alpha-1D adrenergic receptor (Homo sapiens, UniProt P25100); assay: biochemical
T5 sequence (P25100 whole entry): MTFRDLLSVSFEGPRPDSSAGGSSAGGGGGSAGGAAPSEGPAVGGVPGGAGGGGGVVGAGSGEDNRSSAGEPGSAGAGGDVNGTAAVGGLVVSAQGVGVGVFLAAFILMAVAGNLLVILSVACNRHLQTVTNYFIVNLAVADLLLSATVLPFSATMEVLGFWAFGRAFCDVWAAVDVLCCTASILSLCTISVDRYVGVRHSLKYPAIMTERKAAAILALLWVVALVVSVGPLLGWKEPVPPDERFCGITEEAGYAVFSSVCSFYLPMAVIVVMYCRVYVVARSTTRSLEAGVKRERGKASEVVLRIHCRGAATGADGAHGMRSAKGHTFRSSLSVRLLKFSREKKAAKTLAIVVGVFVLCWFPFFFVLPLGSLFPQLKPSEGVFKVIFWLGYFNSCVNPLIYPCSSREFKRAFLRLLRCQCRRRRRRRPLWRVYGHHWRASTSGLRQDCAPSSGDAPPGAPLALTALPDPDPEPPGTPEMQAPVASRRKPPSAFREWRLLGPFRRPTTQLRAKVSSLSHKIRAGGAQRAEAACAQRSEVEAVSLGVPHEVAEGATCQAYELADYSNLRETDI
Description: Displacement of [3H] prazosin from human cloned adrenoceptor alpha 1D expressed in CHO cell membrane incubated for 30 mins by liquid scintillation counter

[8] = target: T6, Alpha-1B adrenergic receptor (Homo sapiens, UniProt P35368); assay: Displacement of [3H] prazosin from human cloned adrenoceptor alpha 1B expressed in CHO cell membrane incubated for 30 mins by liquid scintillation counter
T6 sequence (P35368 whole entry): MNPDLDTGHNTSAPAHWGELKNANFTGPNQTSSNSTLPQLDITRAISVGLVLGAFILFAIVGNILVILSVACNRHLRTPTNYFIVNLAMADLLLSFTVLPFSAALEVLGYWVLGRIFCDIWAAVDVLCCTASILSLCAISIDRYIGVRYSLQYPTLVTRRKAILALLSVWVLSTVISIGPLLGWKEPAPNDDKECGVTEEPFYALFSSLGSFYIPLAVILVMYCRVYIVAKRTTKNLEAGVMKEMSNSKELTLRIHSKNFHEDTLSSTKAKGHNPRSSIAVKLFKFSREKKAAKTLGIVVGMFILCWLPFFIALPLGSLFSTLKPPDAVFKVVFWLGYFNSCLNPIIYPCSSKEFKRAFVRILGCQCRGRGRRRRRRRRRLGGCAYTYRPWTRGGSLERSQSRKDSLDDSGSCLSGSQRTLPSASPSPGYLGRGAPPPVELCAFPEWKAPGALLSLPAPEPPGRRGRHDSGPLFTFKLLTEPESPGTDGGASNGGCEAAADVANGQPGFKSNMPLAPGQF

[9] = target: T7, 5-hydroxytryptamine receptor 1A (Homo sapiens, UniProt P08908); assay: Displacement of [3H]8-OH-DPAT from human cloned 5HT-1AR transfected in HeLa cells incubated for 30 mins by liquid scintillation counter; format: cell-based
T7 sequence (P08908 whole entry): T3 sequence (whole entry)

[10] = target: T8, Alpha-1A adrenergic receptor (Homo sapiens, UniProt P35348); assay: biochemical
T8 sequence (P35348 whole entry): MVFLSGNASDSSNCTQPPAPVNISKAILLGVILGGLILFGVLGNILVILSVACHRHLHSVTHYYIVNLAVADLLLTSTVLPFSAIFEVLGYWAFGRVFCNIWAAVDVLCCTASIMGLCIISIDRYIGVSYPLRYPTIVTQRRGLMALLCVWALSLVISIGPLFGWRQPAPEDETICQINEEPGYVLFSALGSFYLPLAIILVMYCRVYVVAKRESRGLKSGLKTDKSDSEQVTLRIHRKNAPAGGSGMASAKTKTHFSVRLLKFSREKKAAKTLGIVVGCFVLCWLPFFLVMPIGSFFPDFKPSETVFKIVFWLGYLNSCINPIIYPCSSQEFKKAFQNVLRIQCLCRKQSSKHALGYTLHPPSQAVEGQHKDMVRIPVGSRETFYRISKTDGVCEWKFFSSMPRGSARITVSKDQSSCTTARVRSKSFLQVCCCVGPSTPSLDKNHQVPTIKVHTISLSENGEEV
Description: Displacement of [3H] prazosin from human cloned adrenoceptor alpha 1A expressed in CHO cell membrane incubated for 30 mins by liquid scintillation counting

Rattus norvegicus [11] = assay: Anxiolytic activity at Sprague-Dawley rat assessed as number of open arm entries at 0.5 mg/kg, ip by EPM test; format: functional, organism-based
Rattus norvegicus [12] = assay: Effect on locomotory activity in Sprague-Dawley rat assessed as distance travelled at 0.5 mg/kg, ip by open field test; format: functional, organism-based
Rattus norvegicus [13] = assay: Antidepressant activity in Sprague-Dawley rat assessed as time spent on climbing at 0.5 mg/kg, ip by forced swim test; format: functional, organism-based
[14] = Half life in Sprague-Dawley rat plasma at 10 mg/kg, po measured upto 480 mins by LC/MS-MS analysis; format: ADME, organism-based
Rattus norvegicus [15] = assay: Antidepressant activity in Sprague-Dawley rat assessed as decrease in time of immobilization at 0.5 mg/kg, ip by forced swim test; format: functional, organism-based
Rattus norvegicus [16] = assay: Anxiolytic activity at Sprague-Dawley rat assessed as increase in time spent in open arm at 0.5 mg/kg, ip by EPM test relative to control; format: functional
Rattus norvegicus [17] = assay: Antidepressant activity in Sprague-Dawley rat assessed as increase in time spent in swimming at 0.5 mg/kg, ip by forced swim test; format: functional, organism-based

Row | SMILES | pKb [1] | Ratio pKb (Rattus norvegicus [2]) | Ratio pKb (Rattus norvegicus [3]) | pKb [4] | pD2 [5] | pKb [6] | Ki [7] [µM] | Ki [8] [µM] | Ki [9] [µM] | Ki [10] [µM] | Activity (Rattus norvegicus [11]) | Activity (Rattus norvegicus [12]) | Activity (Rattus norvegicus [13]) | half-life [14] [min] | inhibition (Rattus norvegicus [15]) | Activity (Rattus norvegicus [16]) [%] | Activity (Rattus norvegicus [17])
1 | c1ccc(OCCNCC2COC(c3ccccc3)(c3ccccc3)O2)cc1 (stereo unspecified) | 5.86 | > 100 | > 100 | 8.37 | 8.8 | 6.16 |  |  |  |  |  |  |  |  |  |  | 
2 | COc1ccccc1OCCNC[C@@H]1CO[C@H](C(c2ccccc2)c2ccccc2)O1 (relative stereo) | 6.75 |  |  | 7.52 |  | 6.16 | 0.00437 | 0.0372 | 0.00316 | 0.977 |  |  |  |  |  |  | 
3 | c1ccc(OCCNCC[C@H]2CO[C@H](C(c3ccccc3)c3ccccc3)O2)cc1 (relative stereo) | 6.66 |  |  | 7.22 |  | 5.71 | 0.0955 | 0.166 | 0.0575 | 0.0891 |  |  |  |  |  |  | 
4 | c1ccc(OCCNCC[C@@H]2CO[C@H](C(c3ccccc3)c3ccccc3)O2)cc1 (relative stereo) | 6.43 |  |  | 7.15 |  | 6.14 | 0.0759 | 0.107 | 0.0603 | 0.17 |  |  |  |  |  |  | 
5 | c1ccc(OCCNC[C@H]2CO[C@H](C(c3ccccc3)c3ccccc3)O2)cc1 (relative stereo) | 6.26 |  |  | 6.7 |  | 6.29 | 0.0871 | 0.102 | 0.00525 | 0.12 |  |  |  |  |  |  | 
6 | c1ccc(OCCNCCC2COC(c3ccccc3)(c3ccccc3)O2)cc1 (stereo unspecified) | 6.49 |  |  | 7.04 |  | 6.34 | 0.0302 | 0.0955 | 0.724 | 0.0589 |  |  |  |  |  |  | 
7 | c1ccc(OCCNC[C@@H]2CO[C@H](C(c3ccccc3)c3ccccc3)O2)cc1 (relative stereo) | 6.83 |  |  | 6.72 |  | 6.22 | 0.0295 | 0.102 | 0.0115 | 0.427 |  |  |  |  |  |  | 
8 | Br.CCCN(CCC)C1CCc2cccc(O)c2C1 (stereo unspecified) |  |  |  |  |  |  |  |  |  |  | inactive | inactive | inactive | 27 | Active | 19 | Active
9 | COc1ccccc1OCCNC[C@H]1CO[C@H](C(c2ccccc2)c2ccccc2)O1 (relative stereo) | 6.82 |  |  | 7.64 |  | 6.78 | 0.00708 | 0.0275 | 0.002 | 0.0309 |  |  |  |  |  |  | 
10 | COc1ccccc1OCCNCC1COC(c2ccccc2)(c2ccccc2)O1 (stereo unspecified) | 7.36 |  |  | 8.65 | 7.36 | 7.53 |  |  |  |  |  |  |  |  |  |  | 

Source: ChEMBL document CHEMBL4350985, “1,3-Dioxane as a scaffold for potent and selective 5-HT1AR agonist with in-vivo anxiolytic, anti-depressant and anti-nociceptive activity” (Eur J Med Chem, 2019)
